Data taken from ChEMBL document CHEMBL4715719, “Synthesis and biological properties of polyamine modified flavonoids as hepatocellular carcinoma inhibitors” (Eur J Med Chem, 2016).
Active and inactive are the calls of the source. The calls are words filed in the database; no cut-off is given here.

Experiments:
SMMC-7721 [1] = assay: Antiproliferative activity against human […] cells assessed as inhibition of cell proliferation at 30 uM measured after 48 hrs by MTT assay relative to control; assay type: functional
SMMC-7721 [2] = assay: Antiproliferative activity against human […] cells assessed as inhibition of cell proliferation at 100 uM measured after 48 hrs by MTT assay relative to control; assay type: functional
HepG2 [3] = assay: Antiproliferative activity against human HepG2 cells assessed as inhibition of cell proliferation at 30 uM measured after 48 hrs by MTT assay relative to control; assay type: functional
HepG2 [4] = assay: Antiproliferative activity against human HepG2 cells assessed as inhibition of cell proliferation at 100 uM measured after 48 hrs by MTT assay relative to control; assay type: functional
[5] = Cytotoxicity against human QSG7701 cells assessed as inhibition of cell proliferation at 30 uM measured after 48 hrs by MTT assay relative to control; assay type: cell-based
[6] = Cytotoxicity against human QSG7701 cells assessed as inhibition of cell proliferation at 100 uM measured after 48 hrs by MTT assay relative to control; assay type: cell-based
HepG2 [7] = assay: Antimigratory activity against human HepG2 cells assessed as inhibition of cell migration measured after 48 hrs by transwell assay; assay type: functional, cell-based; settings: dose 50-70 µM
HepG2 [8] = assay: Antiinvasive activity against human HepG2 cells assessed as inhibition of cell invasion measured after 48 hrs by wound healing assay; assay type: functional, cell-based; settings: dose 50-70 µM
HepG2 [9] = assay: Antimigratory activity against human HepG2 cells assessed as inhibition of cell migration at 50 to 70 uM in presence of aspirin measured after 48 hrs by transwell assay; assay type: functional, cell-based; settings: dose 50-70 µM
HepG2 [10] = assay: Antiinvasive activity against human HepG2 cells assessed as inhibition of cell invasion at 50 to 70 uM measured after 48 hrs in presence of aspirin by wound healing assay; assay type: functional, cell-based; settings: dose 50-70 µM
HepG2 [11] = assay: Induction of apoptosis in human HepG2 cells after 48 hrs by AO/EB staining based assay; assay type: functional, cell-based; settings: dose 50-70 µM
HepG2 [12] = assay: Induction of mitochondrial membrane potential loss in human HepG2 cells after 48 hrs by Rh123 staining based assay; assay type: functional, cell-based; settings: dose 50-70 µM
HepG2 [13] = assay: Induction of ROS generation in human HepG2 cells after 48 hrs by DCFH-DA staining based assay; assay type: functional, cell-based; settings: dose 50-70 µM
HepG2 [14] = assay: Induction of apoptosis in human HepG2 cells assessed as activation of caspase 3 at 50 to 70 uM measured after 48 hrs by immunofluorescence assay; assay type: functional, cell-based; settings: dose 50-70 µM
HepG2 [15] = assay: Induction of apoptosis in human HepG2 cells assessed as activation of caspase 8 at 50 to 70 uM measured after 48 hrs by immunofluorescence assay; assay type: functional, cell-based; settings: dose 50-70 µM
HepG2 [16] = assay: Induction of apoptosis in human HepG2 cells assessed as upregulation of phosphorylated p38 at 50 to 70 uM measured after 48 hrs by immunofluorescence assay; assay type: functional, cell-based; settings: dose 50-70 µM
H22 [17] = assay: (§1) Potentiation of aspirin-induced antitumor activity against mouse H22 cells implanted in Kunming mouse assessed as reduction in tumor weight at 10 mg/kg, iv administered for 7 consecutive days starting from day 8 post inoculation cotreated with aspirin at 10 mg/kg and measured after 16 days (reference value: 1.37 +/- 0.60 g); assay type: functional; settings: time 8 day
H22 [18] = assay: Antitumor activity against mouse H22 cells implanted in Kunming mouse assessed as tumor growth inhibition at 10 mg/kg, iv administered for 7 consecutive days starting from day 8 post inoculation and measured after 16 days relative to control; assay type: functional; settings: 192 h, time 8 day, read-out: TGI
H22 [19] = assay: as §1, with “as” for “as reduction in”, “growth inhibition” for “weight”, “36 %)” for “1.37 +/- 0.60 g)”; assay type: functional; settings: 192 h, time 8 day, read-out: TGI
[20] = Toxicity in Kunming mouse implanted with mouse H22 cells assessed as change in mouse body weight at 10 mg/kg, iv administered for 7 consecutive days starting from day 8 post inoculation cotreated with DFMO at 200 mg/kg and measured after 16 days (reference value: 16.2 %); assay type: organism-based; settings: in vivo, 192 h, time 8 day
[21] = Toxicity in Kunming mouse implanted with mouse H22 cells assessed as change in mouse body weight at 10 mg/kg, iv administered for 7 consecutive days starting from day 8 post inoculation cotreated with aspirin at 10 mg/kg and measured after 16 days (reference value: 16.7 %); assay type: organism-based; settings: in vivo, 192 h, time 8 day
[22] = Toxicity in iv dosed Kunming mouse assessed as maximum tolerated dose; assay type: organism-based; settings: in vivo
H22 [23] = assay: (§2) Potentiation of DFMO-induced antimetastatic activity against mouse H22 cells implanted in Kunming mouse assessed as number of metastatic focus at 10 mg/kg, iv administered for 7 consecutive days starting from day 11 post inoculation cotreated with DFMO at 200 mg/kg and measured after 18 days (reference value: 35.1 +/- 12); assay type: functional; settings: time 8 day
H22 [24] = assay: as §2, with “aspirin-induced” for “DFMO-induced”, “aspirin” for “DFMO”, “10” for “200”, “43.6” for “35.1”, “13)” for “12)”; assay type: functional; settings: time 8 day
H22 [25] = assay: (§3) Antimetastatic activity against mouse H22 cells implanted in Kunming mouse assessed as inhibition of metastasis at 10 mg/kg, iv administered for 7 consecutive days starting from day 11 post inoculation and measured after 18 days relative to control; assay type: functional; settings: 192 h, time 8 day
H22 [26] = assay: as §3, with “Potentiation of DFMO-induced antimetastatic” for “Antimetastatic”, “inoculation cotreated with DFMO at 200 mg/kg” for “inoculation”; assay type: functional; settings: 192 h, time 8 day
H22 [27] = assay: as §3, with “Potentiation of aspirin-induced antimetastatic” for “Antimetastatic”, “inoculation cotreated with aspirin at 10 mg/kg” for “inoculation”; assay type: functional; settings: 192 h, time 8 day
[28] = Toxicity in Kunming mouse implanted with mouse H22 cells assessed as change in body weight at 10 mg/kg, iv administered for 7 consecutive days starting from day 11 post inoculation cotreated with aspirin at 10 mg/kg and measured after 18 days (reference value: -1.2 %); assay type: organism-based; settings: in vivo, 192 h, time 8 day
Mus musculus [29] = assay: Upregulation of phosphorylated p38 in Kunming mouse implanted with mouse H22 cells assessed as activation of p53 measured after 48 hrs in presence of aspirin by immunofluorescence analysis; assay type: functional; settings: dose 10-30 µM
Mus musculus [30] = assay: Upregulation of phosphorylated JNK in Kunming mouse implanted with mouse H22 cells assessed as activation of p53 measured after 48 hrs in presence of aspirin by immunofluorescence analysis; assay type: functional; settings: dose 10-30 µM
Mus musculus [31] = assay: Downregulation of Bcl-2 in Kunming mouse implanted with mouse H22 cells at 10 to 30 uM after 48 hrs in presence of aspirin by immunofluorescence analysis; assay type: functional; settings: dose 10-30 µM
HepG2 [32] = assay: Antiproliferative activity against human HepG2 cells assessed as inhibition of cell proliferation measured after 48 hrs by MTT assay; assay type: functional, cell-based; settings: HepG2, 48 h
HepG2 [33] = assay: Antiproliferative activity against human HepG2 cells assessed as inhibition of cell proliferation measured after 48 hrs in presence of 800 uM aspirin by MTT assay; assay type: functional, cell-based; settings: HepG2, 48 h
[34] = Antiproliferative activity against mouse H22 cells assessed as inhibition of cell proliferation measured after 48 hrs by MTT assay; assay type: functional, cell-based
[35] = Toxicity in Kunming mouse implanted with mouse H22 cells assessed mouse mortality at 10 mg/kg, iv administered for 7 consecutive days starting from day 8 post inoculation cotreated with DFMO at 200 mg/kg and measured after 16 days; assay type: organism-based; settings: in vivo, 192 h, time 8 day
[36] = Toxicity in Kunming mouse implanted with mouse H22 cells assessed as mouse mortality at 10 mg/kg, iv administered for 7 consecutive days starting from day 8 post inoculation cotreated with aspirin at 10 mg/kg and measured after 16 days; assay type: organism-based; settings: in vivo, 192 h, time 8 day
[37] = Toxicity in Kunming mouse implanted with mouse H22 cells assessed as mouse mortality during lug metastasis assay at 10 mg/kg, iv administered for 7 consecutive days starting from day 8 post inoculation and measured after 16 days; assay type: organism-based; settings: in vivo, 192 h, time 8 day

## Cl.Cl.NCCCNCC(=O)NCc1cccc2c(=O)cc(-c3cccc4ccccc34)oc12
SMMC-7721 [1]
  inhibition at 30 µM: 5.1%
SMMC-7721 [2]
  inhibition at 100 µM: 87.1%
HepG2 [3]
  inhibition at 30 µM: 7.9%
HepG2 [4]
  inhibition at 100 µM: 84.2%
[5]
  inhibition at 48 h, 30 µM: < 5%
[6]
  inhibition at 48 h, 100 µM: 41.8%
HepG2 [7]
  inhibition: Dose-dependent effect
HepG2 [8]
  inhibition: Dose-dependent effect
HepG2 [9]
  inhibition: Active
HepG2 [10]
  inhibition: Active
HepG2 [11]
  Activity: Dose-dependent effect
HepG2 [12]
  Activity: Dose-dependent effect
HepG2 [13]
  Activity: Dose-dependent effect
HepG2 [14]
  Activity: Active
HepG2 [15]
  Activity: inactive
HepG2 [16]
  Activity: Active
H22 [17]
  Activity: 0.66 g
H22 [18]
  inhibition in vivo at 10 mg/kg: 39.2%
H22 [19]
  inhibition in vivo at 10 mg/kg: 69.2%
[20]
  Activity: 16.7%
[21]
  Activity: 19.4%
[22]
  MTD: 20 mg/kg
H22 [23]
  Activity: 29.3
H22 [24]
  Activity: 23
H22 [25]
  inhibition in vivo at 10 mg/kg: 29.3%
H22 [26]
  inhibition in vivo at 10 mg/kg: 48.9%
H22 [27]
  inhibition in vivo at 10 mg/kg: 59.9%
[28]
  Activity: 4.3%
Mus musculus [29]
  Activity: Active
Mus musculus [30]
  Activity: Active
Mus musculus [31]
  Activity: Active
HepG2 [32]
  IC50: 65 µM
HepG2 [33]
  IC50: 59.2 µM
[34]
  IC50: 32.1 µM
[35]
  Activity: Non-Toxic
[36]
  Activity: Non-Toxic
[37]
  Activity: Non-Toxic
